According to ChEMBL document CHEMBL1143403, “Location of persisting mycobacteria in a Guinea pig model of tuberculosis revealed by r207910” (2007):

Assays:
[1] = test system: Mycobacterium tuberculosis; type: functional; conditions: dose 5 mg/kg; route oral
[2] = test system: Mycobacterium tuberculosis; type: functional; conditions: dose 10 mg/kg; route oral
[3] = test system: Mycobacterium tuberculosis; type: functional, Spleen; conditions: dose 10 mg/kg; route oral
[4] = test system: Mycobacterium tuberculosis; type: functional, Spleen; conditions: dose 5 mg/kg; route oral
[5] = test system: Mycobacterium tuberculosis; type: functional, Spleen; conditions: dose 15 mg/kg; route oral
[6] = test system: Mycobacterium tuberculosis; type: functional; conditions: dose 15 mg/kg; route oral

## COc1nc2ccc(Br)cc2cc1[C@@H](c1ccccc1)[C@](O)(CCN(C)C)c1cccc(F)c1
[1]
  CFU: 358
  log10cfu: 2.27
[2]
  CFU: 251
  log10cfu: 1.29
[3]
  log10cfu: 0.46
[4]
  log10cfu: 0.54
[5]
  log10cfu: 0.98
[6]
  CFU: 46
  log10cfu: 0.93
